Experimental data from patent US11291670B2, “Therapeutic approaches for treating Alzheimer disease and related disorders through a modulation of angiogenesis” (PHARNEXT, priority 2008, dated 2022).

How the values were obtained:
Format in all cases: cell-based
[1] = tested on: rat endothelial cerebral cells; assay: Aβ25-35 peptide toxicity, LDH release from rat endothelial cerebral cells; details: FIG. 1; for Protective effect against beta-amyloid peptide toxicity on LDH release (prevention of Aβ25-35 intoxication): Aβ25-35 30 μM, 3 days, drug added 1 hour before; for Spontaneous cell death in the culture medium: rat endothelial cerebral cells, LDH release
Experimental: Primo culture of rat endothelial cerebral cells (Vect-Horus SAS, Marseille) is cultivated on passage 0. At confluence, endothelial cells are dissociated with trypsin EDTA (Pan Biotech Ref: P10-023100). Cells are seeded at a density of 25 000 cells/well in 96 well-plates (wells are coated with 30 μl of type I rat collagen at 1.5 mg/ml, Vect-Horus SAS, Marseille) and are cultured in MCBD 131 medium (M−131-500, Invitrogen) supplemented with 1% of microvascular growth supplement (MVGS, S-005-25, Invitrogen). Cells are cultured at 37° C. in a humidified air (95%)/CO2(5%) atmosphere. Half of the medium is changed every other day with fresh medium. After 4 days, drugs are added to the cell culture medium, at different concentrations, solved in DMSO 0.1% or water.
Cells are then intoxicated with 30 μM of β-amyloid (25-35; Sigma) together with drugs in the same culture medium. Cells are then intoxicated during 3 days.
For each culture, after 3 days of intoxication, the supernatant is collected and analyzed with Cytotoxicity Detection Kit (LDH, Roche Applied Sciences). This colorimetric assay for the quantification of cell death is based on the measurement of lactate dehydrogenase (LDH) activity released from the cytosol of damaged cells into the supernatant. The optic density (DO) is assessed by spectrophotometer at 492 nm wavelength by a multiscan apparatus (Thermo, Ref Ascent).
Results presented in FIG. 1 are extracted from two independent cultures, 6 wells per condition. All values are expressed as mean±s.e.m. A bilateral Student's t test analysis is performed on raw data. Results are expressed in percentage of cell viability, compared to the control (vehicle).
Drugs are incubated with rat primary cerebral endothelial cells one hour before Aβ25-35 30 μM intoxication that lasts 3 days.
Three days after this incubation, LDH release in the culture medium is quantified, reflecting the level of cell death.

[2] = tested on: Human Brain Microvascular Endothelial Cells (HBMEC); assay: human Aβ1-42 injury in HBMEC, total length of capillary network; details: for Effect on intoxication: total length of capillary network in beta-amyloid intoxicated HBMEC cultures: Aβ1-42 2.5 μM, combination versus each drug alone at the same concentrations, FIG. 4-6; for Prevention of Aβ1-42 intoxication in HBMEC (capillary network): drug pretreatment, FIG. 2B, 2C
Experimental: Human brain microvascular endothelial cerebral cells (HBMEC, ScienCell Ref: 1000, frozen at passage 10) were rapidly thawed in a waterbath at +37° C.
The control medium was prepared in the same conditions.
After 3 days, this human amyloid peptide was used on HBMEC at 2.5 μM diluted in control medium (optimal incubation time). The Aβ1-42 peptide was added 2 hours after HBMEC seeding on matrigel for 18 hours incubation.
Capillary Network Quantification
Per well, 2 pictures with 4× lens were taken using InCell Analyzer™ 1000 (GE Healthcare) in light transmission. All images were taken in the same conditions. Analysis of the angiogenesis networks was done using Developer software (GE Healthcare). The total length of capillary network was assessed.
All values are expressed as mean±s.e.mean of the 3 cultures (n=6 per condition). Statistic analyses were done on the different conditions performing an ANOVA followed by the Dunnett's test when it was allowed (Statview software version 5.0). The values (as %) inserted on the graphs show the amyloid toxicity evolution. Indeed, the amyloid toxicity was taken as the 100% and the test compound effect was calculated as a % of this amyloid toxicity.

[3] = tested on: rat primary cortical cells; assay: human Aβ1-42 toxicity, LDH release in rat primary cortical neurons; details: Aβ1-42 10 μM 24 h, 1 hr pre-treatment; FIG. 3
Experimental: Primary rat cortical neurons are cultured as described previously.
Briefly, Aβ1-42 peptide was reconstituted in define culture medium at 40 μM (mother solution) and was slowly shaked at +37° C. for 3 days in dark. The control medium was prepared in the same conditions.
After 10 days of neuron culture, drug was solved in culture medium (+0.1% DMSO) and then pre-incubated with neurons for 1 hour before the Aβ1-42 application (in a final volume per culture well of 100 μl). One hour after drug incubation, 100 μl of Aβ1-42 peptide was added to a final concentration of 10 μM diluted in presence of drug, in order to avoid further drug dilutions. Cortical neurons were intoxicated for 24 hours. Three separate cultures were performed per condition, 6 wells per condition.
BDNF (50 ng/ml) and Estradiol-β (100 and 150 nM) were used as positive control and reference compounds respectively.
The following conditions were assessed: • 1 CONTROL PLAQUE: 12 wells/condition • Negative Control: medium alone+0.1% DMSO • Intoxication: amyloid-β1-42 (10 μM) for 24 h • Positive control: BDNF (50 ng/ml) 1 hr followed by amyloid-β1-42 (10 μM) for 24 h • Reference compound: Estradiol (150 nM) 1 hr followed by amyloid-β1-42 (10 μM) for 24 h. • DRUG PLATE: 6 wells/condition • Negative Control: medium alone+0.1% DMSO • Intoxication: amyloid-β1-42 (10 μM) for 24 h • Drug 1: Drug 1-1 hr followed by amyloid-β1-42(10 μM) for 24 h • Drug 2: Drug 2-1 hr followed by amyloid-β1-42(10 μM) for 24 h Lactate Dehydrogenase (LDH) Activity Assay
This colorimetric assay for the quantification of cell toxicity is based on the measurement of lactate dehydrogenase (LDH) activity released from the cytosol of dying cells into the supernatant.
All values are expressed as mean±s.e.mean of the 3 cultures (n=6 per condition). Statistic analyses were done on the different conditions (ANOVA followed by the Dunnett's test when it was allowed, Statviewi software version 5.0).

CN(C/C=C/C#CC(C)(C)C)Cc1cccc2ccccc12 [Terbinafine]
Protective effect against beta-amyloid peptide toxicity on LDH release (prevention of Aβ25-35 intoxication) [1]: significantly prevented | Spontaneous cell death in the culture medium [1]: decrease spontaneous cell death | Effect on intoxication: total length of capillary network in beta-amyloid intoxicated HBMEC cultures [2]: no significant effect | Prevention of Aβ1-42 intoxication in HBMEC (capillary network) [2]: significantly prevented

Cc1noc(NS(=O)(=O)c2ccc(N)cc2)c1C [Sulfisoxazole]
Protective effect against beta-amyloid peptide toxicity on LDH release (prevention of Aβ25-35 intoxication) [1]: significantly prevented | Effect on intoxication: total length of capillary network in beta-amyloid intoxicated HBMEC cultures [2]: no significant effect

NCC(CC(=O)O)c1ccc(Cl)cc1 (stereo not drawn) [Baclofen (−), Baclofen]
Protective effect against beta-amyloid peptide toxicity on LDH release (prevention of Aβ25-35 intoxication) [1]: significantly prevented

NCC(CC(=O)O)c1ccc(Cl)cc1 (racemic) [Baclofen]
Change of LDH release (Aβ1-42 amyloid injury) in rat primary cortical cells [3]: −86% | Effect on intoxication: total length of capillary network in beta-amyloid intoxicated HBMEC cultures [2]: no significant effect | Prevention of Aβ1-42 intoxication in HBMEC (capillary network) [2]: significantly prevented

C[C@@H]1CC(=O)NN=C1c1ccc(NN=C(C#N)C#N)cc1 [Levosimendan]
Effect on intoxication: total length of capillary network in beta-amyloid intoxicated HBMEC cultures [2]: no significant effect

Cc1oncc1C(=O)Nc1ccc(C(F)(F)F)cc1 [Leflunomide]
Change of LDH release (Aβ1-42 amyloid injury) in rat primary cortical cells [3]: −62% | Protective effect against beta-amyloid peptide toxicity on LDH release (prevention of Aβ25-35 intoxication) [1]: significantly prevented | Spontaneous cell death in the culture medium [1]: decrease spontaneous cell death

B1: BDNF: BDNF (50 ng/ml), positive control for neuroprotection (protein, UniProt P23560 19-247, looked up)
Neurotrophic factor BDNF …: APMKEANIRGQGGLAYPGVRTHGTLESVNGPKAGSRGLTSLADTFEHVIEELLDEDQKVRPNEENNKDADLYTSRVMLSSQVPLEPPLLFLLEEYKNYLDAANMSMRVRRHSDPARRGELSVCDSISEWVTAADKKTAVDMSGGTVTVLEKVPVSKGQLKQYFYETKCNPMGYTKEGCRGIDKRHWNSQCRTTQSYVRALTMDSKKRIGWRFIRIDTSCVCTLTIKRGR
Change of LDH release (Aβ1-42 amyloid injury) in rat primary cortical cells [3]: −95%
